Columns and labels:
[1] = target: T1, TDO (Homo sapiens, UniProt P48775); assay: hTDO biochemical coupled assay; settings: 330 μM L-tryptophan, 17 minutes, room temperature; read-out: hTDO biochemical assay pIC50 (converted)
[2] = target: T1, TDO; assay: A172 kynurenine cell-based assay; set-up: This assay utilised cancer cells which expressed either TDO or IDO; endogenous in cells; host or cells: A172 (human glioblastoma); settings: A172 human glioblastoma cells, 48 hours, 500 μM L-tryptophan; read-out: A172 Kynurenine cell based assay pIC50 (converted)
Method in brief: (§1)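 First, A172 or SKOV3 cells were seeded in phenol red-free RPMI, 10% FCS, 2 mM L-glutamine, 500 μM L-tryptophan; SKOV3 received 500 ng/ml IFN-γ for IDO induction. Next came compound exposure, 48 hours, 37° C. Finally, cells were spun out, supernatant treated with Erhlich's reagent, absorbance read at 490 nm.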

[3] = target: T2, IDO (Homo sapiens, UniProt P14902); assay: SKOV3 kynurenine cell-based assay (IDO induced by IFN-γ); set-up: IDO expression was induced in the SKOV3 cells by the addition of 500 ng/ml IFN-γ; endogenous in cells; host or cells: SKOV3 (human ovarian adenocarcinoma), induced with IFN-γ; settings: SKOV3 human ovarian adenocarcinoma cells, 500 ng/ml IFN-γ, 48 hours, 500 μM L-tryptophan; read-out: SKOV3 Kynurenine cell based assay pIC50 (converted)
T2 sequence (P14902 whole entry): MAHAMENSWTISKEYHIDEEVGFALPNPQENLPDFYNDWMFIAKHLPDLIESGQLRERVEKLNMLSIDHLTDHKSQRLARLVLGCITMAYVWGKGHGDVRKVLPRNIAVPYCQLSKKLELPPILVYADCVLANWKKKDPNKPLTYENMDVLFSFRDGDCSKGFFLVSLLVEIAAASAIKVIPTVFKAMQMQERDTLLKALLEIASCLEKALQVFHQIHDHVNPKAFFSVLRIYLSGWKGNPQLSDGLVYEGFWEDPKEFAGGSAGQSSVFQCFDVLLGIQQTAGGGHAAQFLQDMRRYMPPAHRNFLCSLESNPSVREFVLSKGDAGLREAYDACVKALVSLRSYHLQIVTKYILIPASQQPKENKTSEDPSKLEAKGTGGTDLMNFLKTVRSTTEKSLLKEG
Method in brief: as §1

[4] = target: T2, IDO; assay: hIDO biochemical coupled assay; settings: 45 μM L-tryptophan, 17 minutes, room temperature; read-out: hIDO biochemical assay pIC50 (converted)

T1 sequence (P48775 whole entry): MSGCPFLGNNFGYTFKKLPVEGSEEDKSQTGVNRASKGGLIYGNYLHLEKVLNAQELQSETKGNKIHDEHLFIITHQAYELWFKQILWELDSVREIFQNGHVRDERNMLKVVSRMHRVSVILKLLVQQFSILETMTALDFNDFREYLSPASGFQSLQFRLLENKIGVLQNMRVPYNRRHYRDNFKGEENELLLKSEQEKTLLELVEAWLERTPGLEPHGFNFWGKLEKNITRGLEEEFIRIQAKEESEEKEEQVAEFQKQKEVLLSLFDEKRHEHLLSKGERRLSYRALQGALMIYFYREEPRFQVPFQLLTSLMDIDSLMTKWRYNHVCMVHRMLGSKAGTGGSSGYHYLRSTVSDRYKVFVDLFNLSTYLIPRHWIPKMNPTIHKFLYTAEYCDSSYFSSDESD

Structure (SMILES) | IC50 [1] [µM] | IC50 [2] [µM] | IC50 [3] [µM] | IC50 [4] [µM]
CS(=O)(=O)c1ccc(-c2cc(Cl)cc3[nH]ncc23)c(F)c1 [Compound 297] | < 3.16 | < 3.16 | < 3.16 | 3.24 to 31.6
CNS(=O)(=O)c1ccc(-c2cc(Cl)cc3[nH]ncc23)cc1 [Compound 300] | < 3.16 | < 3.16 | 3.24 to 31.6 | 32.4 to 100
CS(=O)(=O)N1CCN(c2cc(Cl)cc3c(N)noc23)CC1 [Compound 302] | > 100 | 3.24 to 31.6 | 3.24 to 31.6 | > 100
CC(=O)N1CCN(c2cc(Cl)cc3c(N)noc23)CC1 [Compound 303] | > 100 | 3.24 to 31.6 | > 100 | > 100
Clc1cc(N2CCc3ccccc3C2)c2cn[nH]c2c1 [Compound 304] | < 3.16 | < 3.16 | 32.4 to 100 | > 100
CC(=O)N1CCN(c2cc(Cl)cc3c(N)noc23)CC1(C)C [Compound 305] | 32.4 to 100 | 3.24 to 31.6 | 32.4 to 100 | > 100
CS(=O)(=O)N1CCN(c2cc(Cl)cc3c(N)n[nH]c23)CC1 [Compound 306] | > 100 | 3.24 to 31.6 | 3.24 to 31.6 | > 100
CC(=O)N1CCN(c2cc(Cl)cc3c(N)n[nH]c23)CC1(C)C [Compound 307] | < 3.16 | > 100 | 3.24 to 31.6 | < 3.16
Clc1cc(N2CCN(c3ncccn3)CC2)c2cn[nH]c2c1 [Compound 309] | 3.24 to 31.6 | < 3.16 | > 100 | > 100
CN(c1cc(N2CCN(S(C)(=O)=O)C(C)(C)C2)c2cn[nH]c2c1)S(C)(=O)=O [Compound 310] | > 100 | 32.4 to 100 | > 100 | > 100
CC(=O)N(C)c1cc(N2CCN(S(C)(=O)=O)C(C)(C)C2)c2cn[nH]c2c1 [Compound 311] | 32.4 to 100 | 3.24 to 31.6 | 3.24 to 31.6 | > 100
CC(=O)Nc1cc(N2CCN(S(C)(=O)=O)C(C)(C)C2)c2cn[nH]c2c1 [Compound 312] | > 100 | 3.24 to 31.6 | > 100 | > 100
CS(=O)(=O)N1C2COCC1CN(c1cc(Cl)cc3[nH]ncc13)C2 [Compound 314] | < 3.16 | < 3.16 | 32.4 to 100 | 32.4 to 100
CC(C)N1C(=O)NC2(CCN(c3cc(Cl)cc4[nH]ncc34)CC2)C1=O [Compound 316] | < 3.16 | < 3.16 | 3.24 to 31.6 | 3.24 to 31.6
CC1(C)CN(c2cc(Cl)cc3c(N)noc23)CCN1S(C)(=O)=O [Compound 317] | 3.24 to 31.6 | > 100 | 32.4 to 100 | > 100
CC1(C)CN(c2cc(Cl)cc3c(N)n[nH]c23)CCN1S(C)(=O)=O [Compound 321] | > 100 | 3.24 to 31.6 | 3.24 to 31.6 | > 100
CC(=O)N1CCN(c2cc(Cl)cc3c(N)n[nH]c23)CC1 [Compound 322] | > 100 | 3.24 to 31.6 | 3.24 to 31.6 | > 100
Clc1cc(N2CCN(c3ccccn3)CC2)c2cn[nH]c2c1 [Compound 324] | < 3.16 | < 3.16 | 3.24 to 31.6 | > 100
CS(=O)(=O)N1CCC(c2cc(C3CCOCC3)cc3[nH]ncc23)CC1 [Compound 325] | > 100 | 32.4 to 100 | 32.4 to 100 | > 100
Clc1cc(N2CCc3[nH]ncc3C2)c2cn[nH]c2c1 [Compound 328] | < 3.16 | < 3.16 | 3.24 to 31.6 | > 100
O=C1NC2(CCN(c3cc(Cl)cc4[nH]ncc34)CC2)C(=O)N1CCO [Compound 330] | < 3.16 | < 3.16 | < 3.16 | < 3.16
O=C1NC2(CCN(c3cc(Cl)cc4[nH]ncc34)CC2)C(=O)N1Cc1ccccc1 [Compound 331] | < 3.16 | < 3.16 | < 3.16 | < 3.16
CC1(C)CN(c2cc(C#N)cc3[nH]ncc23)CCN1S(C)(=O)=O [Compound 334] | < 3.16 | < 3.16 | 3.24 to 31.6 | < 3.16
CN(c1cc(C2CCN(S(C)(=O)=O)CC2)c2cn[nH]c2c1)S(C)(=O)=O [Compound 338] | > 100 | 3.24 to 31.6 | > 100 | > 100
CS(=O)(=O)N1CCN(c2cc(C(F)(F)F)cc3[nH]ncc23)C2CCCCC21 (stereo not shown) [Compound 340] | > 100 | 3.24 to 31.6 | 32.4 to 100 | > 100
CS(=O)(=O)Nc1ccc2c(c1)CCN(c1cc(Cl)cc3[nH]ncc13)C2 [Compound 342] | < 3.16 | < 3.16 | 3.24 to 31.6 | > 100
Clc1cc(N2CCc3cnccc3C2)c2cn[nH]c2c1 [Compound 343] | < 3.16 | < 3.16 | 32.4 to 100 | > 100
O=C1NCC2(CCN(c3cc(Cl)cc4[nH]ncc34)CC2)O1 [Compound 344] | < 3.16 | < 3.16 | 3.24 to 31.6 | 3.24 to 31.6
Clc1cc(N2CC=CCC2)c2cn[nH]c2c1 [Compound 345] | < 3.16 | < 3.16 | 3.24 to 31.6 | 3.24 to 31.6

Now from value to compound:

IC50 [1] [µM] | IC50 [2] [µM] | IC50 [3] [µM] | IC50 [4] [µM] | Structure (SMILES)
< 3.16 | < 3.16 | 3.24 to 31.6 | > 100 | CN1CC2(CCN(c3cc(Cl)cc4[nH]ncc34)CC2)CC1=O [Compound 291]
> 100 | > 100 | 32.4 to 100 | > 100 | CC(=O)N1CCC(CNC(=O)c2cc(Cl)cc3[nH]ncc23)CC1 [Compound 295]
< 3.16 | 3.24 to 31.6 | 3.24 to 31.6 | 3.24 to 31.6 | CNC(=O)C1CCN(c2cc(Cl)cc3[nH]ncc23)C1 (stereo not shown) [Compound 298]
< 3.16 | < 3.16 | > 100 | > 100 | OC(c1cc(Cl)cc2[nH]ncc12)C1CCOCC1 (stereo not shown) [Compound 299]
< 3.16 | 3.24 to 31.6 | > 100 | 32.4 to 100 | O=C(O)C1CCN(c2cc(Cl)cc3[nH]ncc23)CC1 [Compound 301]
3.24 to 31.6 | < 3.16 | > 100 | 32.4 to 100 | Clc1cc(N2CCCCC2)c2cn[nH]c2c1 [Compound 308]
< 3.16 | < 3.16 | 3.24 to 31.6 | 3.24 to 31.6 | Clc1cc(N2CCC(c3nccs3)CC2)c2cn[nH]c2c1 [Compound 313]
< 3.16 | < 3.16 | < 3.16 | < 3.16 | CCN1C(=O)NC2(CCN(c3cc(Cl)cc4[nH]ncc34)CC2)C1=O [Compound 315]
3.24 to 31.6 | 3.24 to 31.6 | > 100 | > 100 | O=C1CN(c2cc(Cl)cc3[nH]ncc23)CCN1 [Compound 318]
< 3.16 | < 3.16 | 32.4 to 100 | 3.24 to 31.6 | OC1(c2cc(Cl)cc3[nH]ncc23)CCOCC1 [Compound 319]
< 3.16 | < 3.16 | 3.24 to 31.6 | 3.24 to 31.6 | OC1(c2cc(Cl)cc3[nH]ncc23)CCCC1 [Compound 320]
> 100 | 32.4 to 100 | 32.4 to 100 | > 100 | CC(=O)N1CCN(c2cc(C#N)cc3[nH]ncc23)CC1 [Compound 323]
< 3.16 | 3.24 to 31.6 | 3.24 to 31.6 | 3.24 to 31.6 | CCc1cc(C2CCN(S(C)(=O)=O)CC2)c2cn[nH]c2c1 [Compound 326]
3.24 to 31.6 | 3.24 to 31.6 | 3.24 to 31.6 | > 100 | Clc1cc(N2CCOCC2)c2cn[nH]c2c1 [Compound 327]
< 3.16 | < 3.16 | > 100 | > 100 | CN1CCN(c2cc(Cl)cc3[nH]ncc23)CC1=O [Compound 332]
< 3.16 | 3.24 to 31.6 | 32.4 to 100 | > 100 | CS(=O)(=O)N1CCC(C(O)c2cc(Cl)cc3[nH]ncc23)CC1 (stereo not shown) [Compound 333]
< 3.16 | < 3.16 | 3.24 to 31.6 | 3.24 to 31.6 | CC(=O)NC1CCN(c2cc(Cl)cc3[nH]ncc23)CC1(C)C (stereo not shown) [Compound 335]
< 3.16 | < 3.16 | 3.24 to 31.6 | 3.24 to 31.6 | CC1(C)CN(c2cc(Cl)cc3[nH]ncc23)CCC1NS(C)(=O)=O (stereo not shown) [Compound 336]
> 100 | > 100 | 3.24 to 31.6 | > 100 | CC(=O)N(C)c1cc(C2CCN(S(C)(=O)=O)CC2)c2cn[nH]c2c1 [Compound 337]
< 3.16 | < 3.16 | 3.24 to 31.6 | < 3.16 | Clc1cc(N2CCC(n3cccn3)CC2)c2cn[nH]c2c1 [Compound 339]
